Results from the NIST ThermoML archive (doi:10.1016/j.jct.2016.08.038).

Experiments:
[1] = refractive index (Na D-line) (dimensionless); details: 101.33 kPa, Standard Abbe refractometry, Liquid
[2] = Molar enthalpy of transition or fusion; details: DSC
[3] = molar heat capacity at constant pressure; details: 101.33 kPa, Small sample (50 mg) DSC, Liquid
[4] = for electrical conductivity: Frequency=0.001 MHz, Alternating current cell with electrodes; for electrical conductivity / speed of sound / kinematic viscosity / mass density / surface tension liquid-gas: Liquid; for speed of sound: Frequency=3 MHz, Sing-around technique in a fixed-path interferometer; for kinematic viscosity: Capillary tube (Ostwald / Ubbelohde) method; for mass density: Vibrating tube method; for surface tension liquid-gas: Drop volume

CC[n+]1ccccc1.O=S(=O)([O-])C(F)(F)F [1-ethylpyridinium triflate]
Details	Molar enthalpy of transition or fusion [kJ/mol]	Normal melting temperature [°C]	Triple point temperature [K]	molar heat capacity at constant pressure [J/K/mol]	refractive index	surface tension liquid-gas [mN/m]
[1], 293.15 K	–	–	–	–	1.46039	–
[1], 295.65 K	–	–	–	–	1.45969	–
[1], 298.15 K	–	–	–	–	1.45898	–
[1], 300.65 K	–	–	–	–	1.4583	–
[1], 303.15 K	–	–	–	–	1.45759	–
[1], 305.65 K	–	–	–	–	1.45689	–
[1], 308.15 K	–	–	–	–	1.45619	–
[1], 310.65 K	–	–	–	–	1.4555	–
[1], 313.15 K	–	–	–	–	1.45484	–
[1], 315.65 K	–	–	–	–	1.45415	–
[1], 318.15 K	–	–	–	–	1.45345	–
[1], 320.65 K	–	–	–	–	1.45276	–
[1], 323.15 K	–	–	–	–	1.45206	–
[1], 325.65 K	–	–	–	–	1.45134	–
[1], 328.15 K	–	–	–	–	1.45064	–
[1], 330.65 K	–	–	–	–	1.44995	–
[1], 333.15 K	–	–	–	–	1.44927	–
[1], 335.65 K	–	–	–	–	1.44859	–
[1], 338.15 K	–	–	–	–	1.44789	–
[2], Crystal 1	11.5	–	–	–	–	–
[2], Crystal 2	0.7	–	–	–	–	–
[3], 293.15 K	–	–	–	348.4	–	–
[3], 295.65 K	–	–	–	350.2	–	–
[3], 298.15 K	–	–	–	351.8	–	–
[3], 300.65 K	–	–	–	353.6	–	–
[3], 303.15 K	–	–	–	355.3	–	–
[3], 305.65 K	–	–	–	357.1	–	–
[3], 308.15 K	–	–	–	358.7	–	–
[3], 310.65 K	–	–	–	360.5	–	–
[3], 313.15 K	–	–	–	362.1	–	–
[3], 315.65 K	–	–	–	363.8	–	–
[3], 318.15 K	–	–	–	365.4	–	–
[3], 320.65 K	–	–	–	367	–	–
[3], 323.15 K	–	–	–	368.7	–	–
[3], 325.65 K	–	–	–	370.3	–	–
[3], 328.15 K	–	–	–	371.8	–	–
[3], 330.65 K	–	–	–	373.5	–	–
[3], 333.15 K	–	–	–	375.2	–	–
[3], 335.65 K	–	–	–	376.9	–	–
[3], 338.15 K	–	–	–	378.6	–	–
[4], 293.15 K	–	–	–	–	–	42.48
[4], 295.65 K	–	–	–	–	–	42.36
[4], 298.15 K	–	–	–	–	–	42.26
[4], 300.65 K	–	–	–	–	–	42.15
[4], 303.15 K	–	–	–	–	–	42.08
[4], 305.65 K	–	–	–	–	–	42.02
[4], 308.15 K	–	–	–	–	–	41.93
[4], 310.65 K	–	–	–	–	–	41.83
[4], 313.15 K	–	–	–	–	–	41.71
[4], 315.65 K	–	–	–	–	–	41.65
[4], 318.15 K	–	–	–	–	–	41.55
[4], 320.65 K	–	–	–	–	–	41.43
[4], 323.15 K	–	–	–	–	–	41.31
[4], 325.65 K	–	–	–	–	–	41.22
[4], 328.15 K	–	–	–	–	–	41.16
[4], 330.65 K	–	–	–	–	–	41.07
[4], 333.15 K	–	–	–	–	–	40.95
[4], 335.65 K	–	–	–	–	–	40.88
[4], 338.15 K	–	–	–	–	–	40.76
[4], Crystal 1, DTA	–	16	–	–	–	–
[4], Crystal 2, DSC	–	–	260.4	–	–	–

[4]
Details	electrical conductivity [S/m]	kinematic viscosity [m2/s]	mass density [kg/m3]	speed of sound [m/s]
293.15 K, 100 kPa	0.407	–	–	1500.4
293.15 K, 101.33 kPa	–	6.89e-05	1409.09	–
295.65 K, 100 kPa	0.456	–	–	1495
295.65 K, 101.33 kPa	–	6.14e-05	1407.09	–
298.15 K, 100 kPa	0.502	–	–	1489.1
298.15 K, 101.33 kPa	–	5.47e-05	1405.03	–
300.65 K, 100 kPa	0.556	–	–	1483.4
300.65 K, 101.33 kPa	–	4.95e-05	1402.96	–
303.15 K, 100 kPa	0.613	–	1400.91	1477.7
303.15 K, 101.33 kPa	–	4.45e-05	1400.9	–
303.15 K, 5000 kPa	–	–	1403.53	–
303.15 K, 10000 kPa	–	–	1406.14	–
303.15 K, 15000 kPa	–	–	1408.69	–
303.15 K, 20000 kPa	–	–	1411.17	–
303.15 K, 25000 kPa	–	–	1413.58	–
303.15 K, 30000 kPa	–	–	1415.93	–
303.15 K, 35000 kPa	–	–	1418.22	–
303.15 K, 40000 kPa	–	–	1420.44	–
305.65 K, 100 kPa	0.676	–	–	1471.9
305.65 K, 101.33 kPa	–	4.02e-05	1398.85	–
308.15 K, 100 kPa	0.744	–	–	1466.3
308.15 K, 101.33 kPa	–	3.63e-05	1396.8	–
310.65 K, 100 kPa	0.808	–	–	1461.1
310.65 K, 101.33 kPa	–	3.3e-05	1394.77	–
313.15 K, 100 kPa	0.872	–	–	1455
313.15 K, 101.33 kPa	–	3.01e-05	1392.77	–
315.65 K, 100 kPa	0.953	–	–	1450
315.65 K, 101.33 kPa	–	2.75e-05	1390.68	–
318.15 K, 100 kPa	1.02	–	–	1444
318.15 K, 101.33 kPa	–	2.52e-05	1388.63	–
320.65 K, 100 kPa	1.13	–	–	1438.2
320.65 K, 101.33 kPa	–	2.31e-05	1386.59	–
323.15 K, 100 kPa	1.21	–	–	1433.2
323.15 K, 101.33 kPa	–	2.13e-05	1384.6	–
325.65 K, 100 kPa	1.3	–	–	1427.4
325.65 K, 101.33 kPa	–	1.96e-05	1382.5	–
328.15 K, 100 kPa	1.39	–	–	1421.9
328.15 K, 101.33 kPa	–	1.82e-05	1380.47	–
330.65 K, 100 kPa	1.47	–	–	1416.1
330.65 K, 101.33 kPa	–	1.69e-05	1378.45	–
333.15 K, 100 kPa	1.59	–	–	1410.6
333.15 K, 101.33 kPa	–	1.57e-05	1376.42	–
335.65 K, 100 kPa	1.68	–	–	1405.1
335.65 K, 101.33 kPa	–	1.46e-05	1374.41	–
338.15 K, 100 kPa	1.78	–	–	1399.7
338.15 K, 101.33 kPa	–	1.36e-05	1372.35	–
